# Key:
# [1] = system: HEL cells; assay: alamarBlue cell viability, JAKi-I/ABT-263 combination, 72 hr, HEL; format: cell-based; conditions: Jaki-1 0 uM
# Experimental: (§1) Transfection of siRNAs was performed using Lipofectamine RNAiMAX according to the manufacturer’s recommendations. […] Caspase-3 activity was determined using the Caspase-GLO 3/7 Assay (Promega) in parallel with the CellTiter-GLO viability assay (Promega). The data are expressed as Caspase-3/7 activity divided by cell viability.
# (§2) Caspase-3 activity was determined at each time point. Data are from duplicate samples and are representative of at least three independent experiments. (D-G) Cells were treated in combination as indicated, and cell viability was determined after 72 hr. Data are means of duplicate determinations, and are representative of at least three independent experiments. […] Drugs were added simultaneously, and cell viability was determined after 72 hr. The data were then analyzed using the drug-drug interaction model of Bliss additivity^16 to define dose combinations that were synergistic (values >15; red), antagonistic (values <-15; blue), or without effect (-15<values<15; gray). (I) Model of JAK2/Bcl-2 family inhibitor synergy. JAK2^V617F constitutively phosphorylates and activates STAT3/5, thus enforcing expression of the transcriptional target, Mcl-1. Mcl-1 collaborates with Bcl-XL to oppose apoptosis and support viability.
# (§3) Supplementary file pone.0114363.s006.xls: S6 Dataset Cells were treated in combination as indicated, and cell viability was determined using alamarBlue after 72 hr. Data are means of duplicate determinations, and are representative of at least three independent experiments. (XLS) Click here for additional data file.
# [2] = system: SET-2 cells; assay: alamarBlue cell viability, JAKi-I/ABT-263 combination, 72 hr, SET-2; format: cell-based; conditions: SET-2, 72h, Jaki-1 0 uM
# Experimental: as §1, §2, §3
# [3] = biological target: Bcl-w; conditions: cited from earlier work
# [4] = system: MV4;11 cells; assay: alamarBlue cell viability, JAKi-I/ABT-263 combination, 72 hr, MV4;11; format: cell-based; conditions: MV4;11, 72h, Jaki-1 0 uM
# Experimental: as §1, §2, §3
# [5] = system: JAK2 V617F-positive and -negative leukemia cell lines; assay: Drug-drug interaction across leukemia lines: ABT-263 dose shift and Bliss additivity matrix, 72-hr cell viability; format: cell-based; conditions: JAKi-I and ABT-263 0.03-1 μM matrix, 72-hr viability, cell lines carrying JAK2 V617F
# Experimental: as §1, §2
# [6] = system: STAT3 and STAT5 tyrosine phosphorylation; assay: Tyrosine phosphorylation of STAT3 and STAT5 by immunoblotting in leukemia cell lines; format: cell-based
# Experimental: SET-2, HEL, MV4;11, and K562 cells were obtained from ATCC and cultured as recommended. UKE-1 cells were purchased from Walter Fiedler (University of Hamburg). Cell lysates were either prepared using CHAPS lysis buffer (10 mM HEPES, pH 7.4, 150 mM NaCl, 1% CHAPS) or cell extraction buffer containing 1% Triton X-100, 0.1% SDS, and 0.5% deoxycholate. All buffers were supplemented with protease and phosphatase inhibitor cocktails prior to use.
# (§4) Fig 1 Regulation of Mcl-1 and Bcl-XL by JAK2 ^V617F. […] Tyrosine phoshorylation of STAT3 and STAT5 was determined by immunoblotting. […] Constitutive tyrosine phosphorylation of STAT3 and STAT5 was determined by immunoblotting. […] Data represent means +/- standard deviation for two independent determinations each performed in triplicate. […] (G) Quantification of the data shown in (F). Data are expressed as the ratio of intensity of Mcl-1/β-actin for each time point. […] Data are means of duplicate samples and are representative of two independent experiments.
# [7] = biological target: T1, ACVR1 (Homo sapiens, UniProt Q04771); assay: TR-FRET Kinome ACVR1; format: binding; conditions: ACVR1 Invitrogen .05(Subs Conc)
# T1 construct: purchased Invitrogen
# Description: (§5) (XLS) Click here for additional data file.
# [8] = biological target: T2, Syk CatDom (Homo sapiens, UniProt P43405); assay: TR-FRET Kinome Syk CatDom; format: binding; conditions: Syk CatDom .006(Subs Conc)
# T2 construct: Syk CatDom
# Description: as §5
# [9] = biological target: Plk3 (Homo sapiens, UniProt Q9H4B4); assay: TR-FRET Kinome Plk3; format: binding; conditions: Plk3 Invitrogen .05(Subs Conc)
# Description: as §5
# [10] = biological target: PKG1A (Homo sapiens, UniProt Q13976); assay: TR-FRET Kinome PKG1A; format: binding; conditions: PKG1A Millipore .05(Subs Conc)
# Description: as §5
# [11] = biological target: MAP3K10 (Homo sapiens, UniProt Q02779); assay: TR-FRET Kinome MAP3K10; format: binding; conditions: MAP3K10 Invitrogen .005(Subs Conc)
# Description: as §5
# [12] = system: Bcl-XL mRNA; assay: Bcl-XL mRNA abundance by qPCR in SET-2, UKE-1, HEL, MV4;11, K562 cells; format: cell-based; conditions: for BCLxl % Control: treated vs non-treated (100.0); for BCLxl Mean QTY: treated, normalised mRNA quantity by qPCR
# Experimental: as §4
# Data represent means +/- standard deviation for two independent determinations each performed in triplicate (data in Summary tab). Individual experimental data in exp 051409 and repeat Mcl1 tabs. (XLS) Click here for additional data file.
# [13] = biological target: Wee1 (Homo sapiens, UniProt P30291); assay: TR-FRET Kinome Wee1; format: binding; conditions: Wee1 Carna Biosciences .015(Subs Conc)
# Description: as §5
# [14] = biological target: STK16 (Homo sapiens, UniProt O75716); assay: TR-FRET Kinome STK16; format: binding; conditions: STK16 Invitrogen IVGN Tracer .05(Subs Conc)
# Description: as §5
# [15] = biological target: TAOK2 (Homo sapiens, UniProt Q9UL54); assay: TR-FRET Kinome TAOK2; format: binding; conditions: TAOK2 Invitrogen .2(Subs Conc)
# Description: as §5
# Sequence of Wee1 (P30291 whole entry): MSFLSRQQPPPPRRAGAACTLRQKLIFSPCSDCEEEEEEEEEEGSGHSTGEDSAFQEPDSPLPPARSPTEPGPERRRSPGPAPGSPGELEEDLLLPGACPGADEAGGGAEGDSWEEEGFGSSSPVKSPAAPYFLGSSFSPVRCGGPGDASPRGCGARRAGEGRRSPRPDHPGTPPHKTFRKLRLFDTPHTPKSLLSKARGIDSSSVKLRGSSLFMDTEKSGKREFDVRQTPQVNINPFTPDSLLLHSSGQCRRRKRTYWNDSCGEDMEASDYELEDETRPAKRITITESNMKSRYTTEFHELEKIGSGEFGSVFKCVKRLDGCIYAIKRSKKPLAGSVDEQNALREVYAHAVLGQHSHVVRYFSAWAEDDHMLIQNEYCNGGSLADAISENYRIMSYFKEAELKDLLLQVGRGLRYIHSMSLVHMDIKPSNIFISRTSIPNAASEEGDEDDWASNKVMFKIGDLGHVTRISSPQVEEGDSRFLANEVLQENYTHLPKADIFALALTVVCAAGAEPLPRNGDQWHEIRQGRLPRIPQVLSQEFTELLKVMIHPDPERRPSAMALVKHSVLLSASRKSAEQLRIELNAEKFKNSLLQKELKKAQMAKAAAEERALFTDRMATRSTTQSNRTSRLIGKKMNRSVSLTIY
# Sequence of MAP3K10 (Q02779 whole entry): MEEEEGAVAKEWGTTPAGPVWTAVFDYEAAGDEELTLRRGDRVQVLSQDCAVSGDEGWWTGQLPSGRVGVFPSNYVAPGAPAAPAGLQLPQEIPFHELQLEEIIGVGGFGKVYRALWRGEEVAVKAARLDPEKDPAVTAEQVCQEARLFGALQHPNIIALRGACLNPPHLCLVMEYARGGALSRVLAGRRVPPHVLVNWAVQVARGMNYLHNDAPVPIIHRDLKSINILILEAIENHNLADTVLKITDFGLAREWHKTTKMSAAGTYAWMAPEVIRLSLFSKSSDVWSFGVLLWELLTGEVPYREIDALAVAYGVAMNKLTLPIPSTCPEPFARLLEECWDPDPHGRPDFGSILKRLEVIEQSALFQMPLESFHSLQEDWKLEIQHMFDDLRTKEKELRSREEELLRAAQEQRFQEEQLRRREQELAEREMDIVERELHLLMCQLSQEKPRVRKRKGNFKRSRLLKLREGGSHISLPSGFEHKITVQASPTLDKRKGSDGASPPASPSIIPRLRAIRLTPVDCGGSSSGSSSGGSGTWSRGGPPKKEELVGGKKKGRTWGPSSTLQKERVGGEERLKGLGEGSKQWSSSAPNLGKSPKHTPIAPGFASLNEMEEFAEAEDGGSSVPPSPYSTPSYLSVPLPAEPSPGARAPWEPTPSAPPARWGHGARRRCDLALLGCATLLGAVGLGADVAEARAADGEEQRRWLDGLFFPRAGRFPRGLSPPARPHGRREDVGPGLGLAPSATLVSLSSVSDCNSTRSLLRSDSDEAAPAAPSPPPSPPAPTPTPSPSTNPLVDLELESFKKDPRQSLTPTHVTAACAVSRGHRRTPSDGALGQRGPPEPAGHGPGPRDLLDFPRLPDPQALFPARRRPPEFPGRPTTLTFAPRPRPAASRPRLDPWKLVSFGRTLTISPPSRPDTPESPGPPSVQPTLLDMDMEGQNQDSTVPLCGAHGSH
# Sequence of PKG1A (Q13976 whole entry): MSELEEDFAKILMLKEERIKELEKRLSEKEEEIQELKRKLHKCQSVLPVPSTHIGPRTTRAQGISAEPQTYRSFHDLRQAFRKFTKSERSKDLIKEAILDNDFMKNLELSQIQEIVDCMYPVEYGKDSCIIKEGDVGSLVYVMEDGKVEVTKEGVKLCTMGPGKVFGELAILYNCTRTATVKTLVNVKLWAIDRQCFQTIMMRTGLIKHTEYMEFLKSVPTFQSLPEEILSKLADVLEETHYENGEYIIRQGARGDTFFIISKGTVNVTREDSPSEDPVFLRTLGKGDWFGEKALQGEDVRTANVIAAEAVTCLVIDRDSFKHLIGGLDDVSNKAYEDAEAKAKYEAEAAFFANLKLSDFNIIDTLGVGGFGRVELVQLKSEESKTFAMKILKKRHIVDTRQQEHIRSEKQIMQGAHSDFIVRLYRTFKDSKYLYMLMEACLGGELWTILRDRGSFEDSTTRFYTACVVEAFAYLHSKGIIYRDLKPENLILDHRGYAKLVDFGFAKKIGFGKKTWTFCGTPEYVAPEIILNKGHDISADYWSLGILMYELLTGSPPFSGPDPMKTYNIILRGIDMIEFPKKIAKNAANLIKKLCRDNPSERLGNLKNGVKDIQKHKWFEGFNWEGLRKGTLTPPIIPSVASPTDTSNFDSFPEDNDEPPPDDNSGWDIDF
# Sequence of STK16 (O75716 whole entry): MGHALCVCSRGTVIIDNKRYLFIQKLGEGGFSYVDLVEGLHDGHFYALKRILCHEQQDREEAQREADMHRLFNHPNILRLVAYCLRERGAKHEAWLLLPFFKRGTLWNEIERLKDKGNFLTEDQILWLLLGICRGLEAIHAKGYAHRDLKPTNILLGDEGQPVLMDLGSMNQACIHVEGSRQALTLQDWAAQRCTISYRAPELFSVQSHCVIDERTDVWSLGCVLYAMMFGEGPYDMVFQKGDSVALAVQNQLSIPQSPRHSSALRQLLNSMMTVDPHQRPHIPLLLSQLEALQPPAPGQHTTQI
# T1 sequence (Q04771 21-509): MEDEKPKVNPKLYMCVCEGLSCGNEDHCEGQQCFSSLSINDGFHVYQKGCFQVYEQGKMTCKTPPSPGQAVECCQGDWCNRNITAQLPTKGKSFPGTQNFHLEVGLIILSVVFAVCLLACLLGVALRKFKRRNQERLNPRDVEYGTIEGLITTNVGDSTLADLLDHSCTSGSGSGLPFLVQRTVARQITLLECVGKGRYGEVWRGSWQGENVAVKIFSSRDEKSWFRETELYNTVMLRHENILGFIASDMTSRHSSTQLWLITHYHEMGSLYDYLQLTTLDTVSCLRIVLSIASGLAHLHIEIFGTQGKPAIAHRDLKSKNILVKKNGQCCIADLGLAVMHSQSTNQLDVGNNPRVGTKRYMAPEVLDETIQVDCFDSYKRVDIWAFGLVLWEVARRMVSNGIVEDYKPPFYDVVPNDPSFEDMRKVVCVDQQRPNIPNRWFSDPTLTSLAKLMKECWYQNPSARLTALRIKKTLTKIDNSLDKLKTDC
# Sequence of TAOK2 (Q9UL54 whole entry): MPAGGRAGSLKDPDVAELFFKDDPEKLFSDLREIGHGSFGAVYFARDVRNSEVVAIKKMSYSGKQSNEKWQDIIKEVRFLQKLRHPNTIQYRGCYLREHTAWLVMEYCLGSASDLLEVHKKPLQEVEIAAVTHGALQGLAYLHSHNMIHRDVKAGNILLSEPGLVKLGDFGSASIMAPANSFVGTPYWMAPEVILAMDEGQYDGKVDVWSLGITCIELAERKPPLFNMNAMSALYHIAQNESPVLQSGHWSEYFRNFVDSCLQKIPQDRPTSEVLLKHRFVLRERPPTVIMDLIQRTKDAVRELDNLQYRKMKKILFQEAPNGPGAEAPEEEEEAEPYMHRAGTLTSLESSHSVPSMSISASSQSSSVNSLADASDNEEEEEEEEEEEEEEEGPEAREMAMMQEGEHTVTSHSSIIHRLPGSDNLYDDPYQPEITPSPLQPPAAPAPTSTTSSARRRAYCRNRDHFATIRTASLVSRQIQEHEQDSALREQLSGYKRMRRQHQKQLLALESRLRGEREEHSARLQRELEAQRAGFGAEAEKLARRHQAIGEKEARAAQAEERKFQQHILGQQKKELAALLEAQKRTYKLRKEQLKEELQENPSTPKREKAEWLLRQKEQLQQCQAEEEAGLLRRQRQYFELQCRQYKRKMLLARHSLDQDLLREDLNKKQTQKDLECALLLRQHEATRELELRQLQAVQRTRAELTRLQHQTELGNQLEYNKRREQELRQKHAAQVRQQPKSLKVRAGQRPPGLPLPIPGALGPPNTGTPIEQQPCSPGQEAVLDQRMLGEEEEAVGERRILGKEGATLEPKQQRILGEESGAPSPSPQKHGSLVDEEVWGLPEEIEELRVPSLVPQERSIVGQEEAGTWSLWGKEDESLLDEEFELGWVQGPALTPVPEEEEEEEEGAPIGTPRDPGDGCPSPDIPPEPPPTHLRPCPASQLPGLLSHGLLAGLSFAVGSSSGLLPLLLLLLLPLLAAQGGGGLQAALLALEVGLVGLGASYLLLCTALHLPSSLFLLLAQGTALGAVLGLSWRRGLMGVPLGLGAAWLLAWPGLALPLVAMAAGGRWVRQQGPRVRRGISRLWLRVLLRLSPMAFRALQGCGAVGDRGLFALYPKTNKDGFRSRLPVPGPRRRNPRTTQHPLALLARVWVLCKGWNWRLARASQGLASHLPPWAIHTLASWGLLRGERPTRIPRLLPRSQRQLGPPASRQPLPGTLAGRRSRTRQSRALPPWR
# Sequence of Plk3 (Q9H4B4 whole entry): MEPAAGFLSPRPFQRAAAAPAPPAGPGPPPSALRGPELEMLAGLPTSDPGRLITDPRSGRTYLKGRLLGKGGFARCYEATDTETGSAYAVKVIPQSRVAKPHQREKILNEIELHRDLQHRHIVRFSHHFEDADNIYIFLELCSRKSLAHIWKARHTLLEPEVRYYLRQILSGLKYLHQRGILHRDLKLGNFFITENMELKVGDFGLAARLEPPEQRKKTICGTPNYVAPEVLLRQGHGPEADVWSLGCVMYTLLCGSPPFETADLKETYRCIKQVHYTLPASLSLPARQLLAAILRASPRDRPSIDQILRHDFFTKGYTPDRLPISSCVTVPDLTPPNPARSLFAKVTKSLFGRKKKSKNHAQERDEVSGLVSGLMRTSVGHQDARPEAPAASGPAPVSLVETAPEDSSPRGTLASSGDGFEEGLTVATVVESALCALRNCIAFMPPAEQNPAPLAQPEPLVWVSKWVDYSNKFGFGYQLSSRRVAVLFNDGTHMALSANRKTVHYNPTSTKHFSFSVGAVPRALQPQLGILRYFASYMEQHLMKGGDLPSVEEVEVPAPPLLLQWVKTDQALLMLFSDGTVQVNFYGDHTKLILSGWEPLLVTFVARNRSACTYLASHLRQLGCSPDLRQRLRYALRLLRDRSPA
compound,measurement,setting,value
CC1(C)CCC(c2ccc(Cl)cc2)=C(CN2CCN(c3ccc(C(=O)NS(=O)(=O)c4ccc(N[C@H](CCN5CCOCC5)CSc5ccccc5)c(S(=O)(=O)C(F)(F)F)c4)cc3)CC2)C1 [ABT-263],Viability (% Inhibiton),[1]; ABT-263 0.003 uM,0%
same,Viability (% Inhibiton),[1]; ABT-263 0.01 uM,0%
same,Viability (% Inhibiton),[1]; ABT-263 0.03 uM,1%
same,Viability (% Inhibiton),[1]; ABT-263 0.1 uM,14%
same,Viability (% Inhibiton),[1]; ABT-263 0.3 uM,55%
same,Viability (% Inhibiton),[1]; ABT-263 1 uM,95%
same,Viability (% Inhibiton),[2]; ABT-263 0.003 uM,0%
same,Viability (% Inhibiton),[2]; ABT-263 0.01 uM,3%
same,Viability (% Inhibiton),[2]; ABT-263 0.03 uM,4%
same,Viability (% Inhibiton),[2]; ABT-263 0.1 uM,28%
same,Viability (% Inhibiton),[2]; ABT-263 0.3 uM,63%
same,Viability (% Inhibiton),[2]; ABT-263 1 uM,95%
same,Ki,[3],< 0.001 µM
same,Viability (% Inhibiton),[4]; ABT-263 0.003 uM,0%
same,Viability (% Inhibiton),[4]; ABT-263 0.01 uM,1%
same,Viability (% Inhibiton),[4]; ABT-263 0.03 uM,0%
same,Viability (% Inhibiton),[4]; ABT-263 0.1 uM,23%
same,Viability (% Inhibiton),[4]; ABT-263 0.3 uM,30%
same,Viability (% Inhibiton),[4]; ABT-263 1 uM,29%
same,drug-drug interaction (Bliss additivity),[5],Synergistic interactions
"CC(C)(C)c1nc2c3cc[nH]c(=O)c3c3cc(F)ccc3c2[nH]1 [JAKi-I, JAK inhibitor I]",constitutive STAT3/5 phosphorylation,"[6]; 1 μM, 1 hr, serum-free, only in JAK2 V617F lines (SET-2, UKE-1, HEL), not K562, MV4;11",inhibited
same,phosphorylation of both STAT3 and STAT5,"[6]; UKE-1 (JAK2 V617F) cells, 10 min","rapid, dose-dependent inhibition"
same,Ki,[7],> 4.32 µM
same,Ki,[8],> 3.26 µM
same,Ki,[9],> 1.55 µM
same,Ki,[10],> 3.63 µM
same,Ki,[11],> 3.06 µM
same,BCLxl % Control,[12]; HEL cells,30.4093%
same,BCLxl Mean QTY,[12]; HEL cells,76.1
same,BCLxl % Control,[12]; K562 cells,93.9154%
same,BCLxl Mean QTY,[12]; K562 cells,98.4
same,BCLxl % Control,[12]; MV411 cells,101.412%
same,BCLxl Mean QTY,[12]; MV411 cells,30.8
same,BCLxl % Control,[12]; SET2 cells,19.4966%
same,BCLxl Mean QTY,[12]; SET2 cells,62.5
same,Bcl-XL transcript level,"[12]; following JAK inhibition, 6 hr",sharply declined
same,Ki,[13],> 3.64 µM
same,Ki,[14],> 5.41 µM
same,Ki,[15],> 6.61 µM
